# Source: the NIST ThermoML archive (doi:10.1021/je3008974)
# Numbers after ± are expanded uncertainties.
# Details: Liquid
# [1] = 298.15 K, 2000 kPa, Pycnometric method
structure (smiles),measurement,setting,value
FC(F)(F)I [trifluoroiodomethane],mass density,"207.79 K, 10925 kPa, isochoric method",2455.5 ± 2.9 kg/m3
same,mass density,"210.4 K, 14322 kPa, isochoric method",2455 ± 2.9 kg/m3
same,mass density,"214.87 K, 20130 kPa, isochoric method",2454.2 ± 2.9 kg/m3
same,mass density,"214.92 K, 1055.7 kPa, isochoric method",2401.1 ± 2.9 kg/m3
same,mass density,"215.96 K, 2305 kPa, isochoric method",2400.9 ± 2.9 kg/m3
same,mass density,"216.71 K, 3175.5 kPa, isochoric method",2400.7 ± 2.9 kg/m3
same,mass density,"217.73 K, 4381.5 kPa, isochoric method",2400.5 ± 2.9 kg/m3
same,mass density,"218.37 K, 5116.4 kPa, isochoric method",2400.4 ± 2.9 kg/m3
same,mass density,"218.48 K, 25008 kPa, isochoric method",2453.5 ± 2.9 kg/m3
same,mass density,"222.4 K, 29924 kPa, isochoric method",2452.8 ± 2.9 kg/m3
same,mass density,"222.62 K, 10052 kPa, isochoric method",2399.6 ± 2.9 kg/m3
same,mass density,"226.21 K, 34684 kPa, isochoric method",2452.1 ± 2.9 kg/m3
same,mass density,"226.99 K, 15121 kPa, isochoric method",2398.8 ± 2.9 kg/m3
same,mass density,"229.95 K, 39202 kPa, isochoric method",2451.5 ± 2.9 kg/m3
same,mass density,"231.25 K, 20002 kPa, isochoric method",2398.1 ± 2.9 kg/m3
same,mass density,"231.74 K, 1109.5 kPa, isochoric method",2334.8 ± 2.8 kg/m3
same,mass density,"233.57 K, 2990.1 kPa, isochoric method",2334.5 ± 2.8 kg/m3
same,mass density,"234.66 K, 4114 kPa, isochoric method",2334.3 ± 2.8 kg/m3
same,mass density,"235.46 K, 4930.4 kPa, isochoric method",2334.1 ± 2.8 kg/m3
same,mass density,"235.5 K, 24985 kPa, isochoric method",2397.3 ± 2.9 kg/m3
same,mass density,"239.91 K, 29944 kPa, isochoric method",2396.6 ± 2.9 kg/m3
same,mass density,"240.52 K, 10116 kPa, isochoric method",2333.3 ± 2.8 kg/m3
same,mass density,"244.17 K, 34707 kPa, isochoric method",2395.8 ± 2.9 kg/m3
same,mass density,"245.45 K, 15114 kPa, isochoric method",2332.4 ± 2.8 kg/m3
same,mass density,"248.78 K, 39783 kPa, isochoric method",2395.1 ± 2.9 kg/m3
same,mass density,"250.46 K, 20143 kPa, isochoric method",2331.6 ± 2.8 kg/m3
same,mass density,"251.97 K, 1975.5 kPa, isochoric method",2256.4 ± 2.8 kg/m3
same,mass density,"253.21 K, 3063.1 kPa, isochoric method",2256.2 ± 2.8 kg/m3
same,mass density,"254.16 K, 3884.4 kPa, isochoric method",2256 ± 2.8 kg/m3
same,mass density,"255.27 K, 4873.4 kPa, isochoric method",2255.8 ± 2.8 kg/m3
same,mass density,"255.32 K, 25028 kPa, isochoric method",2330.8 ± 2.8 kg/m3
same,mass density,"260.19 K, 29834 kPa, isochoric method",2330 ± 2.8 kg/m3
same,mass density,"261.5 K, 10373 kPa, isochoric method",2254.8 ± 2.8 kg/m3
same,mass density,"265.13 K, 34684 kPa, isochoric method",2329.2 ± 2.8 kg/m3
same,mass density,"266.41 K, 776 kPa, isochoric method",2188.5 ± 2.7 kg/m3
same,mass density,"266.75 K, 1052.9 kPa, isochoric method",2188.4 ± 2.7 kg/m3
same,mass density,"267.06 K, 15109 kPa, isochoric method",2253.2 ± 2.8 kg/m3
same,mass density,"267.97 K, 1992.8 kPa, isochoric method",2188.2 ± 2.7 kg/m3
same,mass density,"269.24 K, 2976.2 kPa, isochoric method",2188 ± 2.7 kg/m3
same,mass density,"270.53 K, 3984.6 kPa, isochoric method",2187.8 ± 2.7 kg/m3
same,mass density,"270.93 K, 40330 kPa, isochoric method",2328.3 ± 2.8 kg/m3
same,mass density,"272.12 K, 5216.5 kPa, isochoric method",2187.6 ± 2.7 kg/m3
same,mass density,"272.85 K, 20116 kPa, isochoric method",2252.3 ± 2.8 kg/m3
same,mass density,"278.48 K, 25009 kPa, isochoric method",2252.2 ± 2.8 kg/m3
same,mass density,"278.49 K, 10098 kPa, isochoric method",2186.6 ± 2.7 kg/m3
same,mass density,"278.5 K, 24979 kPa, isochoric method",2251.5 ± 2.8 kg/m3
same,mass density,"284.17 K, 29780 kPa, isochoric method",2250.6 ± 2.8 kg/m3
same,mass density,"284.36 K, 940.5 kPa, isochoric method",2105.8 ± 2.7 kg/m3
same,mass density,"285.08 K, 15134 kPa, isochoric method",2185.7 ± 2.7 kg/m3
same,mass density,"285.92 K, 1976.8 kPa, isochoric method",2105.6 ± 2.7 kg/m3
same,mass density,"287.34 K, 2905.5 kPa, isochoric method",2105.4 ± 2.7 kg/m3
same,mass density,"288.88 K, 3930.3 kPa, isochoric method",2105.2 ± 2.7 kg/m3
same,mass density,"290.4 K, 34997 kPa, isochoric method",2249.7 ± 2.8 kg/m3
same,mass density,"290.43 K, 4950.8 kPa, isochoric method",2104.9 ± 2.7 kg/m3
same,mass density,"291.69 K, 20129 kPa, isochoric method",2184.7 ± 2.7 kg/m3
same,mass density,"296.15 K, 39750 kPa, isochoric method",2248.8 ± 2.8 kg/m3
same,mass density,"297.94 K, 861.4 kPa, isochoric method",2038.1 ± 2.7 kg/m3
same,mass density,"298.14 K, 10026 kPa, isochoric method",2103.9 ± 2.7 kg/m3
same,mass density,[1],2046.84 ± 2.2 kg/m3
same,mass density,"298.15 K, 25035 kPa, isochoric method",2183.8 ± 2.7 kg/m3
same,mass density,"300.01 K, 2068.2 kPa, isochoric method",2037.9 ± 2.7 kg/m3
same,mass density,"301.75 K, 3070.1 kPa, isochoric method",2037.6 ± 2.7 kg/m3
same,mass density,"303.44 K, 4061.6 kPa, isochoric method",2037.4 ± 2.7 kg/m3
same,mass density,"304.54 K, 29729 kPa, isochoric method",2182.8 ± 2.7 kg/m3
same,mass density,"305.17 K, 5069.5 kPa, isochoric method",2037.2 ± 2.7 kg/m3
same,mass density,"305.56 K, 14805 kPa, isochoric method",2102.8 ± 2.7 kg/m3
same,mass density,"311.69 K, 35046 kPa, isochoric method",2181.8 ± 2.7 kg/m3
same,mass density,"313.22 K, 982.5 kPa, isochoric method",1957.5 ± 2.6 kg/m3
same,mass density,"313.53 K, 19969 kPa, isochoric method",2101.8 ± 2.7 kg/m3
same,mass density,"313.58 K, 9932.8 kPa, isochoric method",2036.1 ± 2.7 kg/m3
same,mass density,"315.12 K, 1958.3 kPa, isochoric method",1957.3 ± 2.6 kg/m3
same,mass density,"317.18 K, 2990.2 kPa, isochoric method",1957 ± 2.6 kg/m3
same,mass density,"318.54 K, 40060 kPa, isochoric method",2180.9 ± 2.7 kg/m3
same,mass density,"319.17 K, 3976.2 kPa, isochoric method",1956.8 ± 2.6 kg/m3
same,mass density,"321.22 K, 5005.2 kPa, isochoric method",1956.5 ± 2.6 kg/m3
same,mass density,"321.68 K, 25300 kPa, isochoric method",2100.7 ± 2.7 kg/m3
same,mass density,"322.38 K, 14998 kPa, isochoric method",2034.9 ± 2.7 kg/m3
same,mass density,"328.99 K, 1994.4 kPa, isochoric method",1875.8 ± 2.6 kg/m3
same,mass density,"329.49 K, 30240 kPa, isochoric method",2099.6 ± 2.7 kg/m3
same,mass density,"331.3 K, 2985.8 kPa, isochoric method",1875.6 ± 2.6 kg/m3
same,mass density,"331.3 K, 10058 kPa, isochoric method",1955.3 ± 2.6 kg/m3
same,mass density,"331.31 K, 20061 kPa, isochoric method",2033.8 ± 2.7 kg/m3
same,mass density,"333.64 K, 3972.3 kPa, isochoric method",1875.3 ± 2.6 kg/m3
same,mass density,"336 K, 4985.7 kPa, isochoric method",1875 ± 2.6 kg/m3
same,mass density,"337.32 K, 35169 kPa, isochoric method",2098.6 ± 2.7 kg/m3
same,mass density,"340.45 K, 25264 kPa, isochoric method",2032.6 ± 2.7 kg/m3
same,mass density,"341.64 K, 15161 kPa, isochoric method",1954 ± 2.6 kg/m3
same,mass density,"343.84 K, 39291 kPa, isochoric method",2097.7 ± 2.7 kg/m3
same,mass density,"353.14 K, 20828 kPa, isochoric method",1952.6 ± 2.6 kg/m3
same,mass density,"353.15 K, 12322 kPa, isochoric method",1873 ± 2.6 kg/m3
same,mass density,"353.15 K, 32431 kPa, isochoric method",2031 ± 2.7 kg/m3
"F/C=C/C(F)(F)F [trans-1,3,3,3-tetrafluoropropene]",mass density,"285.5 K, 1018.5 kPa, isochoric method",1205.5 ± 2.4 kg/m3
same,mass density,"286.92 K, 2021.5 kPa, isochoric method",1205.4 ± 2.4 kg/m3
same,mass density,"288.32 K, 3010.5 kPa, isochoric method",1205.3 ± 2.4 kg/m3
same,mass density,"289.41 K, 3779.9 kPa, isochoric method",1205.2 ± 2.4 kg/m3
same,mass density,"291.42 K, 20124 kPa, isochoric method",1254.7 ± 2.4 kg/m3
same,mass density,"291.45 K, 5221.8 kPa, isochoric method",1205 ± 2.4 kg/m3
same,mass density,"298.03 K, 1062.5 kPa, isochoric method",1165.6 ± 2.4 kg/m3
same,mass density,"298.14 K, 9928.4 kPa, isochoric method",1204.5 ± 2.4 kg/m3
same,mass density,[1],1170.52 ± 1.1 kg/m3
same,mass density,"299.62 K, 2045.7 kPa, isochoric method",1165.5 ± 2.4 kg/m3
same,mass density,"301.21 K, 3025.5 kPa, isochoric method",1165.3 ± 2.4 kg/m3
same,mass density,"302.81 K, 4026.8 kPa, isochoric method",1165.2 ± 2.4 kg/m3
same,mass density,"304.38 K, 4991.3 kPa, isochoric method",1165.1 ± 2.4 kg/m3
same,mass density,"305.08 K, 14792 kPa, isochoric method",1203.9 ± 2.4 kg/m3
same,mass density,"312.4 K, 1349.3 kPa, isochoric method",1117.7 ± 2.4 kg/m3
same,mass density,"312.58 K, 10069 kPa, isochoric method",1164.5 ± 2.4 kg/m3
same,mass density,"312.58 K, 19938 kPa, isochoric method",1203.3 ± 2.4 kg/m3
same,mass density,"313.7 K, 2032.5 kPa, isochoric method",1117.6 ± 2.4 kg/m3
same,mass density,"315.61 K, 3038.9 kPa, isochoric method",1117.5 ± 2.4 kg/m3
same,mass density,"317.51 K, 4033.2 kPa, isochoric method",1117.4 ± 2.4 kg/m3
same,mass density,"319.6 K, 5142.9 kPa, isochoric method",1117.2 ± 2.4 kg/m3
same,mass density,"319.8 K, 24935 kPa, isochoric method",1202.7 ± 2.4 kg/m3
same,mass density,"320.41 K, 14882 kPa, isochoric method",1163.9 ± 2.4 kg/m3
same,mass density,"327 K, 29927 kPa, isochoric method",1202.2 ± 2.4 kg/m3
same,mass density,"328.71 K, 2042.5 kPa, isochoric method",1060.1 ± 2.4 kg/m3
same,mass density,"328.71 K, 9986.8 kPa, isochoric method",1116.5 ± 2.4 kg/m3
same,mass density,"328.72 K, 19949 kPa, isochoric method",1163.2 ± 2.4 kg/m3
same,mass density,"330.83 K, 2963.3 kPa, isochoric method",1060 ± 2.4 kg/m3
same,mass density,"333.13 K, 3964.2 kPa, isochoric method",1059.8 ± 2.4 kg/m3
same,mass density,"334.34 K, 34952 kPa, isochoric method",1201.6 ± 2.4 kg/m3
same,mass density,"335.43 K, 4968.4 kPa, isochoric method",1059.7 ± 2.4 kg/m3
same,mass density,"336.83 K, 24924 kPa, isochoric method",1162.6 ± 2.4 kg/m3
same,mass density,"337.81 K, 14797 kPa, isochoric method",1115.9 ± 2.4 kg/m3
same,mass density,"341.91 K, 40043 kPa, isochoric method",1201 ± 2.4 kg/m3
same,mass density,"345.09 K, 29935 kPa, isochoric method",1162 ± 2.4 kg/m3
same,mass density,"346.84 K, 9943.4 kPa, isochoric method",1058.9 ± 2.4 kg/m3
same,mass density,"347.53 K, 19908 kPa, isochoric method",1115.2 ± 2.4 kg/m3
same,mass density,"353.15 K, 12717 kPa, isochoric method",1058.5 ± 2.4 kg/m3
same,mass density,"353.15 K, 22854 kPa, isochoric method",1114.8 ± 2.4 kg/m3
same,mass density,"353.15 K, 34806 kPa, isochoric method",1161.4 ± 2.4 kg/m3
